Series [1] concerns LACV. Briefly: LACV Gc protein expression in Hs27 cells by flow cytometry. In kind it is cell-based, La Crosse Virus. The following applies: MOI 10, 24 hpi; for Cells expressing LACV glycoprotein Gc: 10 µM before and after infection, DMSO ~60%. Here is the method:
La Crosse Virus (LACV) was kindly provided by Andrew Pekosz (Johns Hopkins Bloomberg School of Public Health, Baltimore, MD, USA), grown at 28 °C in C6/36 cells derived from the larvae of the Asian tiger mosquito (ATCC), and titered at 37 °C on Vero cells as previously described. Infections were carried out in DMEM containing 2% HI FBS for 1 h or mock infected with media alone. Cells were washed with PBS and cultured in DMEM containing 2% HI FBS.
(§1) For cytotoxicity assays, cells were stained with propidium iodide (PI) at a dilution of 1:100. Cell viability was determined via flow cytometry using the CytoFLEX (Beckman Coulter, Brea, CA, USA). CytExpert software (Beckman Coulter, version 2.4) was used to analyze independent events. PIV5 infection was monitored using flow cytometry via the FITC channel by analyzing GFP expression of individual cells. ZIKV infection was monitored utilizing Flavivirus group antigen–antibody (D1-4G2-4-15; Novus Biologicals, Littleton, CO, USA) staining for the ZIKV envelope protein. Cells were fixed and permeabilized using eBioscience Intracellular Fixation and Permeabilization Buffer (Invitrogen, Thermo Fisher Scientific, MA, USA) according to the manufacturer’s instructions. Secondary staining was performed using an anti-Alexa Fluor 488 (AF488) antibody (Invitrogen, Thermo Fisher Scientific, MA, USA). OC43 infection was monitored utilizing a primary antibody targeted toward the OC43 nucleocapsid protein (NP, MAB9013, Sigma-Aldrich, St. Louis, MO, USA). Secondary staining was performed using an AF488 antibody. Cells were fixed and permeabilized as previously described. LACV infection was monitored utilizing an anti-LACV Gc 807.31ab antibody kindly provided by Andrew Pekosv. Secondary staining was performed using an AF488 antibody. Cells were fixed and permeabilized as previously described.
(§2) To expand these findings, we evaluated whether these top-performing chalcones inhibited the replication of other RNA viruses. […]
For orientation: In flow cytometry, cells or beads pass a laser one at a time.

Series [2] deals with ZIKV. Briefly: ZIKV envelope (E) protein expression in Hs27 cells by flow cytometry. The following applies: MOI 5, 24 hpi; for Cells expressing ZIKV envelope (E) protein: 10 µM before and after infection, DMSO 15%. In kind it is cell-based, Zika Virus. The procedure:
The MR766 strain of Zika Virus (ZIKV) (ATCC-VR84, Manassas, VA, USA) was grown and titered at 37 °C using Vero cells as previously described. Infections were carried out in DMEM containing 10% BSA for 1 h. Cells were then washed with PBS and cultured in DMEM containing 10% HI FBS.
as §1
To expand these findings, we evaluated whether these top-performing chalcones inhibited the replication of other RNA viruses. Briefly described, Hs27 cells were left untreated, treated with DMSO as a control, or treated with the chalcones 8a, 8o, or 8p at 10 μM for 24 h. Cells were then infected with the Bunyavirus LACV, the Flavivirus ZIKV, or the Coronavirus OC43 at high MOIs, as listed in Figure 10. […]

Series [3] has as its system OC43. Briefly: Coronavirus OC43 NP protein expression in Hs27 cells by flow cytometry. In kind it is cell-based, Human Coronavirus OC43. To be noted: MOI 50, 24 hpi; for Cells expressing OC43 NP protein: 10 µM before and after infection, DMSO ~65%. Here is the method:
Human Coronavirus OC43 (ATCC, catalog number VR-1558) was grown in a human colorectal adenocarcinoma cell line (HCT-8; ATCC, Manassas, Virginia, catalog #CCL-244) at 33 °C as previously described. OC43 titers were determined at 33 °C via 50% Tissue Culture Infectious Dose assays (TCID50) on confluent human rhabdomyosarcoma (RD; ATCC, Manassas, Virginia, catalog # CCL-136) cells in 96-well plates as previously described. Infections were carried out in DMEM containing 10% BSA for 1 h at 33 °C. Cells were then washed with PBS, cultured in DMEM supplemented with 2% HI FBS, and incubated at 33 °C.
For cytotoxicity assays, cells were stained with propidium iodide (PI) at a dilution of 1:100. Cell viability was determined via flow cytometry using the CytoFLEX (Beckman Coulter, Brea, CA, USA). CytExpert software (Beckman Coulter, version 2.4) was used to analyze independent events. PIV5 infection was monitored using flow cytometry via the FITC channel by analyzing GFP expression of individual cells. ZIKV infection was monitored utilizing Flavivirus group antigen–antibody (D1-4G2-4-15; Novus Biologicals, Littleton, CO, USA) staining for the ZIKV envelope protein. Cells were fixed and permeabilized using eBioscience Intracellular Fixation and Permeabilization Buffer (Invitrogen, Thermo Fisher Scientific, MA, USA) according to the manufacturer’s instructions. Secondary staining was performed using an anti-Alexa Fluor 488 (AF488) antibody (Invitrogen, Thermo Fisher Scientific, MA, USA). OC43 infection was monitored utilizing a primary antibody targeted toward the OC43 nucleocapsid protein (NP, MAB9013, Sigma-Aldrich, St. Louis, MO, USA). Secondary staining was performed using an AF488 antibody. Cells were fixed and permeabilized as previously described. LACV infection was monitored utilizing an anti-LACV Gc 807.31ab antibody kindly provided by Andrew Pekosv. Secondary staining was performed using an AF488 antibody. […]
as §2

Series [4] deals with mTOR signaling. Briefly: Western blot of prps6 and rps6 as readouts of mTOR signaling in PANC-1 cells. To be noted: 72 h, chalcones 10 µM, rapamycin 10 nM. In kind it is cell-based. The procedure:
PANC-1 cells were cultured in 6-well dishes and were lysed using modified radioimmunoprecipitation assay (RIPA) buffer (20 mM HEPES, pH 7.0, 150 mM NaCl, 1 mM EDTA, 1% NP-40, 1% deoxycholate, and 0.1% sodium dodecyl sulfate [SDS]) containing a complete protease inhibitor cocktail (Roche, Mannheim, Germany) and PhosSTOP phosphatase inhibitor cocktail (Roche, Mannheim, Germany). Protein concentrations were determined using the bicinchoninic acid (BCA) protein assay kit (Pierce, Rockford, IL, USA) according to manufacturer’s instructions. Cell lysates with 25 µg of protein were resolved on 12% sodium dodecyl sulfate-polyacrylamide gel electrophoresis (SDS-PAGE) gels and electro-transferred onto polyvinylidene difluoride (PVDF) membranes (Trans-Blot Turbo Transfer System, BioRad, Hercules, CA, USA). The samples were probed with rabbit monoclonal antibodies for the P-rps6 (1:1000) protein (Cell Signaling, Danvers, MA, USA) and mouse monoclonal antibodies for rps6 (1:1000) (Cell Signaling) and β-actin (1:5000) (Abcam, Waltham, MA, USA) proteins. Blots were visualized using anti-rabbit or anti-mouse horseradish peroxidase (HRP)-conjugated antibodies (Cell Signaling) and chemiluminescence reagent (Thermo Fisher Scientific, Waltham, MA, USA).
PANC-1 cells were chosen for this study as they are highly dependent on mTOR for their growth. PANC-1 cells were cultured and treated with the positive control rapamycin (10 nM) and chalcones NM5, 8a, 8o, 8s, 8v, and 8w (10 μM) for 72 h. Rapamycin and the chalcones were dissolved in 100% DMSO and dosed so that the final DMSO concentration was 0.1%. Cell lysates were collected and analyzed to determine the relative protein expression levels of rps6, prps6, and β-actin as a loading control (see Figure 12).

Series [5] deals with Vero cells. Briefly: Propidium iodide (PI) staining cytotoxicity in Vero cells by flow cytometry. The class given is cell-based. To be noted: 24 h, concentration giving 10% PI+ cells. Here is the method:
We also extended the analysis of chalcone anti-viral effects to the widely used Vero cell line. […] The quotients of these values were determined to compare the compounds directly while accounting for both cytotoxicity and efficacy against PIV5.

Series [6] concerns human cytomegalovirus (HCMV). Further details: method as in PMID 23768434. To be noted: cited from earlier work.
The test system of series [7] is human immunodeficiency virus (HIV). Further details: method as in PMID 27161874. To be noted: cited from earlier work.

Take `COc1ccccc1/C=C/C(=O)c1ccccc1O` [Chalcone 8a]: the “Inhibition of viral gene expression, LACV” value in series [1] (10 µM) was “did not inhibit viral gene expression”. In addition, the “Inhibition of viral gene expression, ZIKV” value in series [2] (10 µM) is recorded as “did not inhibit viral gene expression”. For the same molecule, the “Effect on OC43 NP expression” value in series [3] (10 µM) was “significant inhibitory effects”. Moreover, in series [4], the “prps6 expression relative to DMSO control” value was “no significant change” and the “total rps6 protein expression relative to DMSO control” value is reported as “no significant difference”.

As to `COc1ccc(Br)cc1/C=C/C(=O)c1c(O)cccc1OC` [Chalcone 8f], the “PI MTC” value in series [5] was 6.8 µM.

With `COc1ccc(Br)cc1/C=C/C(=O)c1c(O)cccc1OCc1ccccc1` [Chalcone 8l], the “PI MTC” value in series [5] came out at 4.0 µM.

As to `CCOc1ccc(Br)cc1/C=C/C(=O)c1c(O)cccc1OCc1ccccc1` [Chalcone 8o], the “PI MTC” value in series [5] came to 2.5 µM. In addition, the “Cells expressing LACV glycoprotein Gc” value in series [1] is on record as “below 10%”. In addition, in series [2], the “Cells expressing ZIKV envelope (E) protein” value was ~ 2%. Also, the “Cells expressing OC43 NP protein” value in series [3] is 1-2%. For the same molecule, in series [4], the “prps6 expression relative to DMSO control” value is “no significant change” and the “total rps6 protein expression relative to DMSO control” value is given as “no significant difference”. The “Antiviral activity against HCMV” value in series [6] was “had efficacy as an antiviral agent”. In addition, in series [7], the “Antiviral activity against HIV” value was “had efficacy as an antiviral agent”.

Turning to `CCOc1ccc(Cl)cc1/C=C/C(=O)c1c(O)cccc1OCc1ccccc1` [Chalcone 8p], the “PI MTC” value in series [5] was 3.2 µM. The “Cells expressing LACV glycoprotein Gc” value in series [1] is listed as “below 10%”. Moreover, in series [2], the “Cells expressing ZIKV envelope (E) protein” value is reported as ~ 2%. The “Cells expressing OC43 NP protein” value in series [3] is on record as 1-2%.

For `COc1ccc(Br)cc1/C=C/C(=O)c1c(O)cccc1OCCC(C)C` [Chalcone 8s, (2E)-3-(5-Bromo-2-Methoxy-Phenyl)-1-[2-Hydroxy-6-(3-Methyl-Butoxy)-Phenyl]-Propenone], in series [4], the “prps6 expression relative to DMSO control” value is given as “no significant change” and the “total rps6 protein expression relative to DMSO control” value was “significantly increased”.

As to `CCOc1ccc(Br)cc1/C=C/C(=O)c1c(O)cccc1OCc1ccc(-c2ccccc2)cc1` [Chalcone 8v, (2E)-1-[2-(Biphenyl-4-Ylmethoxy)-6-Hydroxy-Phenyl]3-(5-Bromo-2-Ethoxy-Phenyl)-Propenone], in series [4], the “prps6 expression relative to DMSO control” value was “no significant change” and the “total rps6 protein expression relative to DMSO control” value is “no significant difference”.

As to `COc1ccc(Br)cc1/C=C/C(=O)c1c(O)cccc1OCc1ccc(-c2ccccc2)cc1` [Chalcone 8w, (2E)-1-[2-(Biphenyl-4-Ylmethoxy)-6-Hydroxy-Phenyl]3-(5-Bromo-2-Methoxy-Phenyl)-Propenone], in series [4], the “prps6 expression relative to DMSO control” value is recorded as “no significant change” and the “total rps6 protein expression relative to DMSO control” value was “no significant difference”.

Source of the values: paper PMC12467382, “Synthesis and Bioevaluation of Chalcones as Broad-Spectrum Antiviral Compounds Against Single-Stranded RNA Viruses” (Biomolecules, 2025).
